{
  "source": "patent US20210386367A1",
  "about": "“DEVICES AND SYSTEMS FOR GASTROINTESTINAL MICROBIOME DETECTION AND MANIPULATION” (Progenity, Inc., priority 2018, published 2021)",
  "assay_type_in_all_cases": "cell-based",
  "key": {"[1]": {"test_system": "Staphylococcus aureus clinical isolates", "experiment": "MIC distribution against clinical isolates", "conditions": "50 S. aureus isolates", "source_text": "As used herein, “minimum inhibitory concentration” or “MIC” refers to the lowest concentration of an antimicrobial agent, for example, an antimicrobial agent as described herein, required to inhibit the growth of an organism.\n(§1) Many susceptibility testing methods are known in the art and can be used as described herein (see, e.g., Jorgensen and Ferraro (2009) Clinical Infectious Diseases 49:1749-1755; and Maurer et al. (2017) Infectious Disease Reports 9:6839; the entire contents of each of the foregoing are incorporated herein by reference). For example, antimicrobial susceptibility can be determined using conventional culture based methods such as the broth or agar dilution test. In these dilution tests, the bacterial isolate of interest is inoculated onto different media that include serial dilutions of an antimicrobial agent, and incubated under appropriate conditions (e.g., overnight at 37° C.) to allow for growth to occur. Following the incubation period, the media is examined to determine bacterial growth. The lowest concentration of antibiotic that prevents growth represents the minimal inhibitory concentration (MIC). Broth dilution tests can be miniaturized and mechanized allowing for reproducibility and high throughput."}, "[2]": {"test_system": "Streptococcus spp. clinical isolates", "experiment": "MIC distribution against clinical isolates", "conditions": "54 Streptococcus spp. isolates", "source_text": "(n=19 S. pyogenes, n=20 S. agalactiae and n=20 Viridans group Streptococcus) clinical isolates (μg/mL).\nAs used herein, “minimum inhibitory concentration” or “MIC” refers to the lowest concentration of an antimicrobial agent, for example, an antimicrobial agent as described herein, required to inhibit the growth of an organism. […] “MIC90” represents the MIC value at which ≥90% of the strains within a test population are inhibited; the 90th percentile.\nas §1"}, "Enterococcus faecalis": {"test_system": "Enterococcus faecalis", "experiment": "Broth microdilution MIC, 50 clinical isolates", "description": "(§2) Minimal inhibitory concentration (MIC) values were determined by broth microdilution or agar dilution in accordance with guidelines from the Clinical and Laboratory Standards Institute (CLSI; (1) “Methods for Dilution Antimicrobial Susceptibility Tests for Bacteria That Grow Aerobically; Approved Standard; 11th ed.” CLSI standard M07-A11, 2018; (2) “Performance Standards for Antimicrobial Susceptibility Testing; Twenty-Eighth Informational Supplement,” CLSI document M100-S28, 2018; and (3) “Methods for Antimicrobial Susceptibility Testing of Anaerobic Bacteria; Approved Standard—Eighth Edition,” CLSI document M11-A8, 2012).\n(§3) Tested aerobically by broth microdilution: • Escherichia coli, n=50 • Klebsiella spp., n=50 • Pseudomonas aeruginosa, n=50 • Streptococcus spp., n=50 • Staphylococcus aureus, n=50 • Enterococcus faecalis, n=50 • Enterobacter aerogenes, n=50 • Proteus mirabilis, n=50\n(§4) Broth microdilution testing of aerobic bacteria was conducted in cation-adjusted Mueller Hinton broth (MHBII). For testing streptococci, lysed horse blood (LHB) was added to MHBII broth at a final concentration of 3%. Where LHB was used, it was added after filtering.\n(§5) Broth microdilution susceptibility testing in 96-well microplates was conducted in accordance with CLSI methods (1) and (2). Automated liquid handlers were used to conduct serial dilutions and liquid transfers, including the Multidrop 384 (Labsystems, Helsinki, Finland), Biomek 2000, and the Biomek FX (Beckman Coulter, Fullerton, Calif.). All wells in columns 2 through 12 of a standard 96-well microdilution plate (Costar 3795) were filled with 150 μL of the appropriate diluent. Then, 300 μL of the test agents were added to the wells of column 1 of the plates at 100× the highest final concentration to be tested. Serial two-fold dilutions were made across the rows through column 11 using the Biomek 2000. The wells of column 12 contained no drug and served as the growth control wells. This plate served as the “mother plate” from which MIC assay plates or “daughter plates” were made.\n(§6) The daughter plates were loaded with 190 μL per well of the appropriate medium using the Multidrop 384. The daughter plates were created using the Biomek FX which transferred 2 μL of drug solution from each well of a mother plate to each corresponding well of the daughter plate in a single step. A standardized inoculum of each test organism was prepared per CLSI methods (1) to equal a 0.5 McFarland standard, followed by a dilution of 1:20 for aerobes and 1:10 for anaerobes. The plates were then inoculated with 10 μL of the diluted inoculum using the Biomek 2000 from low to high drug concentration, resulting in a final concentration of approximately 5×10^5 CFU/mL per well. An un-inoculated plate was incubated in parallel for each medium for the purpose of assessing solubility of the drug in the test media.\n(§7) Inoculated plates were stacked 3 or 4 high, covered with a sterile lid on the top plate, placed into boxes with CO2 planchets (streptococci) or plastic bags (all other isolates). Plates were incubated at 35° C. for 16-24 hr in ambient air for aerobes or for 42-48 hr in the anaerobic environment of the Bactron II anaerobe chamber (Sheldon Manufacturing Co.; Cornelius, Oreg.). Following incubation, the microplates were removed from the incubator and viewed from the bottom using a plate viewer. The MIC values were read and recorded as the lowest concentration of drug that inhibited visible growth of the organism as per CLSI methods (1) and (2)."}, "Staphylococcus aureus": {"test_system": "Staphylococcus aureus", "experiment": "Broth microdilution MIC, 50 clinical isolates (28 MRSA)", "description": "as §2, §3, §4, §5, §6, §7"}, "Streptococcus spp.": {"test_system": "Streptococcus spp.", "experiment": "Broth microdilution MIC, 54 clinical isolates", "description": "as §2, §3, §4, §5, §6, §7"}, "[3]": {"test_system": "Viridans group Streptococcus", "experiment": "Broth microdilution MIC, 15 clinical isolates", "description": "as §2, §3, §4, §5, §6, §7"}, "[4]": {"conditions": "54 Streptococcus spp. clinical isolates"}, "[5]": {"conditions": "15 Viridans group Streptococci clinical isolates"}},
  "note": "Entries after “also recorded” stand apart in the source; their conditions may differ. Like-named read-outs stand apart in the source and are kept apart here.",
  "data": [
    {"compound": "C[C@@H](O)[C@H]1C(=O)N2C(C(=O)O)=C(S[C@@H]3CN[C@H](C(=O)N(C)C)C3)[C@H](C)[C@H]12", "note": "[meropenem]", "values": [
      {"measurement": "Cumulative percentage of isolates inhibited at MIC", "setting": "[1]; MIC 0.06 μg/mL", "value": 12.0, "unit": "%"},
      {"measurement": "Number of test isolates at MIC", "setting": "[1]; MIC 0.06 μg/mL", "value": 6},
      {"measurement": "Cumulative percentage of isolates inhibited at MIC", "setting": "[1]; MIC 0.5 μg/mL", "value": 46.0, "unit": "%"},
      {"measurement": "Number of test isolates at MIC", "setting": "[1]; MIC 0.5 μg/mL", "value": 1},
      {"measurement": "Cumulative percentage of isolates inhibited at MIC", "setting": "[1]; MIC 1 μg/mL", "value": 52.0, "unit": "%"},
      {"measurement": "Number of test isolates at MIC", "setting": "[1]; MIC 1 μg/mL", "value": 3},
      {"measurement": "Cumulative percentage of isolates inhibited at MIC", "setting": "[1]; MIC 2 μg/mL", "value": 56.0, "unit": "%"},
      {"measurement": "Number of test isolates at MIC", "setting": "[1]; MIC 2 μg/mL", "value": 2},
      {"measurement": "Cumulative percentage of isolates inhibited at MIC", "setting": "[1]; MIC 4 μg/mL", "value": 78.0, "unit": "%"},
      {"measurement": "Number of test isolates at MIC", "setting": "[1]; MIC 4 μg/mL", "value": 11},
      {"measurement": "Cumulative percentage of isolates inhibited at MIC", "setting": "[1]; MIC 8 μg/mL", "value": 94.0, "unit": "%"},
      {"measurement": "Number of test isolates at MIC", "setting": "[1]; MIC 8 μg/mL", "value": 8},
      {"measurement": "Cumulative percentage of isolates inhibited at MIC", "setting": "[1]; MIC 16 μg/mL", "value": 96.0, "unit": "%"},
      {"measurement": "Number of test isolates at MIC", "setting": "[1]; MIC 16 μg/mL", "value": 1},
      {"measurement": "Cumulative percentage of isolates inhibited at MIC", "setting": "[1]; MIC >16 μg/mL", "value": 100.0, "unit": "%"},
      {"measurement": "Number of test isolates at MIC", "setting": "[1]; MIC >16 μg/mL", "value": 2},
      {"measurement": "Cumulative percentage of isolates inhibited at MIC", "setting": "[2]; MIC 0.004 μg/mL", "value": 29.6, "unit": "%"},
      {"measurement": "Number of test isolates at MIC", "setting": "[2]; MIC 0.004 μg/mL", "value": 15},
      {"measurement": "Cumulative percentage of isolates inhibited at MIC", "setting": "[2]; MIC 0.008 μg/mL", "value": 40.7, "unit": "%"},
      {"measurement": "Number of test isolates at MIC", "setting": "[2]; MIC 0.008 μg/mL", "value": 6},
      {"measurement": "Cumulative percentage of isolates inhibited at MIC", "setting": "[2]; MIC 0.015 μg/mL", "value": 57.4, "unit": "%"},
      {"measurement": "Number of test isolates at MIC", "setting": "[2]; MIC 0.015 μg/mL", "value": 9},
      {"measurement": "Cumulative percentage of isolates inhibited at MIC", "setting": "[2]; MIC 0.03 μg/mL", "value": 92.6, "unit": "%"},
      {"measurement": "Number of test isolates at MIC", "setting": "[2]; MIC 0.03 μg/mL", "value": 19},
      {"measurement": "Cumulative percentage of isolates inhibited at MIC", "setting": "[2]; MIC 0.06 μg/mL", "value": 94.4, "unit": "%"},
      {"measurement": "Number of test isolates at MIC", "setting": "[2]; MIC 0.06 μg/mL", "value": 1},
      {"measurement": "Cumulative percentage of isolates inhibited at MIC", "setting": "[2]; MIC 0.5 μg/mL", "value": 100.0, "unit": "%"},
      {"measurement": "Number of test isolates at MIC", "setting": "[2]; MIC 0.5 μg/mL", "value": 2},
      {"measurement": "Cumulative percentage of isolates inhibited at MIC", "setting": "[2]; MIC […]", "value": 96.3, "unit": "%"},
      {"measurement": "Number of test isolates at MIC", "setting": "[2]; MIC […]", "value": 1},
      {"measurement": "Cumulative percentage of isolates inhibited at MIC", "setting": "[2]; MIC ≤0.002 μg/mL", "value": 1.9, "unit": "%"},
      {"measurement": "Number of test isolates at MIC", "setting": "[2]; MIC ≤0.002 μg/mL", "value": 1},
      {"measurement": "Mode", "setting": "Enterococcus faecalis", "value": 4, "unit": "µg/mL"},
      {"measurement": "MIC50", "setting": "Enterococcus faecalis; Enterococcus faecalis, read-out: MIC50", "value": 4, "unit": "µg/mL"},
      {"measurement": "MIC90", "setting": "Enterococcus faecalis; Enterococcus faecalis, read-out: MIC90", "value": 8, "unit": "µg/mL"},
      {"measurement": "Mode", "setting": "Staphylococcus aureus", "value": 0.12, "unit": "µg/mL"},
      {"measurement": "MIC50", "setting": "Staphylococcus aureus; Staphylococcus aureus, read-out: MIC50", "value": 1, "unit": "µg/mL"},
      {"measurement": "MIC90", "setting": "Staphylococcus aureus; Staphylococcus aureus, read-out: MIC90", "value": 8, "unit": "µg/mL"},
      {"measurement": "isolates susceptible", "setting": "Streptococcus spp.", "value": "All"},
      {"measurement": "relative activity among drugs tested", "setting": "Streptococcus spp.", "value": "most active drug evaluated; also recorded: most active agent"},
      {"measurement": "MIC50", "setting": "Streptococcus spp.; [4]", "value": 0.015, "unit": "µg/mL"},
      {"measurement": "MIC90", "setting": "Streptococcus spp.; [4]", "value": 0.03, "unit": "µg/mL"},
      {"measurement": "MIC range", "setting": "Streptococcus spp.; [4]", "value": "≤0.002 to 0.5", "unit": "µg/mL"},
      {"measurement": "% S", "setting": "Streptococcus spp.; 54 Streptococcus spp. clinical isolates, MXF by FDA breakpoints", "value": 100, "unit": "%"},
      {"measurement": "MIC50", "setting": "Streptococcus spp.; Streptococcus, read-out: MIC50", "value": 0.015, "unit": "µg/mL"},
      {"measurement": "MIC90", "setting": "Streptococcus spp.; Streptococcus, read-out: MIC90", "value": 0.03, "unit": "µg/mL"},
      {"measurement": "Mode", "setting": "Streptococcus spp.; modal MIC, 54 Streptococcus spp. clinical isolates", "value": 0.03, "unit": "µg/mL"},
      {"measurement": "MIC50", "setting": "[3]; [5]", "value": 0.015, "unit": "µg/mL"},
      {"measurement": "MIC90", "setting": "[3]; [5]", "value": 0.5, "unit": "µg/mL"},
      {"measurement": "MIC range", "setting": "[3]; [5]", "value": "0.004 to 0.5", "unit": "µg/mL"},
      {"measurement": "% S", "setting": "[3]; 15 Viridans group Streptococci clinical isolates, MXF by FDA breakpoints", "value": 100, "unit": "%"},
      {"measurement": "MIC50", "setting": "[3]; Streptococcus, read-out: MIC50", "value": 0.015, "unit": "µg/mL"},
      {"measurement": "MIC90", "setting": "[3]; Streptococcus, read-out: MIC90", "value": 0.5, "unit": "µg/mL"},
      {"measurement": "Mode", "setting": "[3]; modal MIC, 15 Viridans group Streptococci clinical isolates", "value": 0.015, "unit": "µg/mL"}
    ]}
  ]
}
